{"source": "patent US4406883A", "about": "“Controlled release suppositories consisting essentially of a linear polymer particularly, polyvinyl pyrrolidones” (Merrell Dow Pharmaceuticals Inc., priority 1981, dated 1983)", "key": {"[1]": {"assay": "In vitro trial: drug release from extruded suppositories in 150 ml water at 37° C.", "assay_type": "physicochemical", "conditions": "phenylephrine hydrochloride vs lignocaine hydrochloride, alone and together (FIGS. 6-8)", "description": "Mixes for the in vivo and the in vitro trails were made by dissolving the required quantities of drug in water which was then added to the polymer and thoroughly mixed using a spatula. […] The resulting damp, spongy particles were squeezed together by hand to form a dough-like mixture. The mixes were extruded through a nozzle of a 50 ml plastic syringe to form a long rod (9 mm diameter). Immediately after, suppositories were made by cutting the rod into 3 cm length and were stored in an air-tight container prior to use.\nDrug release rates were studied in four ways:\n(i) release from suppositories containing 20 mg phenylephrine hydrochloride only (in duplicate).\n(iii) release from suppositories containing both drugs in the above amounts (in triplicate).\nThe concentration of drug in the aliquot was immediately determined spectrophotometrically (q.v.) after which the aliquot sample was returned to the solution. […]\nAnalytical background effects (due to the polymer) were measured by repeating the spectrophotometric procedure using a suppository containing no drug. […]\nThe absorbences of the samples taken during the in vitro trial were measured on the spectrophotometer and the concentrations of the dissolved drugs determined by reference to the calibration curves.\nDrug release rates were measured in the in vitro trials for suppositories containing each drug alone and both drugs together. […]"}, "[2]": {"conditions": "male beagle", "description": "Four smaller pieces were randomly cut from the remainder and placed into weighed vials. Distilled water (10 ml) was added to each vial and the contents were allowed to dissolve overnight. Triplicate aliquots (0.1 ml) were removed for the determination of radioactivity as for plasma.\nThe evacuated suppository was separated from the faecal pellet and weighed. The sample was then homogenised with a known quantity of purified sand (sand to sample ratio, 2:1).\nFour pieces of the sand/suppository mixture were placed in weighed vials. Distilled water (4 ml) was added to each vial and the contents were allowed to dissolve overnight. Unisolve 1 (10 ml) was added and the resulting translucent gel was mixed by vigorous shaking. The samples were assayed for radioactivity.\nThey were then re-weighed and the moisture content of the evacuated suppository was determined."}, "[3]": {"conditions": "male beagle, rectal, dose 38.93 μCi"}}, "note": "Structures can show the parent of a compound that is named as a salt. Where two headings read alike, the source gives them in different places.", "data": [{"compound": "CCN(CC)CC(=O)Nc1c(C)cccc1C", "note": "[lignocaine hydrochloride]", "values": [{"measurement": "proportion of drug released, comparison of drugs", "setting": "[1]", "result": "approximately the same"}]}, {"compound": "CNC[C@H](O)c1cccc(O)c1", "note": "[phenylephrine hydrochloride]", "values": [{"measurement": "proportion of drug released, comparison of drugs", "setting": "[1]", "result": "approximately the same"}]}, {"compound": "[^14 C]-lignocaine hydrochloride", "values": [{"measurement": "time of maximum plasma concentration of radioactivity", "setting": "dog, rectal", "result": 8, "unit": "h"}, {"measurement": "maximum plasma concentration of radioactivity", "setting": "dog, rectal, at 8 h", "result": "0.00295 %/ml of the administered radioactive dose"}, {"measurement": "% total administered dose, liver", "setting": "male beagle, 48 h", "result": 0.36, "unit": "%"}, {"measurement": "% total administered dose, rectal contents", "setting": "male beagle, 48 h", "result": 0.086, "unit": "%"}, {"measurement": "% total administered dose, rectum", "setting": "male beagle, 48 h", "result": 0.026, "unit": "%"}, {"measurement": "cumulative % total administered dose, through liver", "setting": "male beagle, 48 h", "result": 0.375, "unit": "%"}, {"measurement": "cumulative % total administered dose, through rectal contents", "setting": "male beagle, 48 h", "result": 0.487, "unit": "%"}, {"measurement": "cumulative % total administered dose, through rectum", "setting": "male beagle, 48 h", "result": 0.401, "unit": "%"}, {"measurement": "cumulative % total administered dose, through urine and faeces", "setting": "male beagle, 48 h", "result": 48.687, "unit": "%"}, {"measurement": "total radioactivity recovered, bile", "setting": "male beagle, 48 h", "result": 0.006, "unit": "μCi"}, {"measurement": "total radioactivity recovered, liver", "setting": "male beagle, 48 h", "result": 0.14, "unit": "μCi"}, {"measurement": "total radioactivity recovered, rectal contents", "setting": "male beagle, 48 h", "result": 0.03, "unit": "μCi"}, {"measurement": "total radioactivity recovered, rectum", "setting": "male beagle, 48 h", "result": 0.01, "unit": "μCi"}, {"measurement": "total radioactivity recovered, urine and faeces", "setting": "male beagle, 48 h", "result": 18.77, "unit": "μCi"}, {"measurement": "concentration of radioactivity in plasma", "setting": "male beagle, rectal, 0 h", "result": "0 % administered radioactive dos"}, {"measurement": "radioactive drug equivalents in plasma", "setting": "male beagle, rectal, 0 h", "result": 0, "unit": "μg equivalents/ml plasma"}, {"measurement": "concentration of radioactivity in plasma", "setting": "male beagle, rectal, 0.5 h", "result": "0.00081 % administered radioactive dos"}, {"measurement": "radioactive drug equivalents in plasma", "setting": "male beagle, rectal, 0.5 h", "result": 0.75, "unit": "μg equivalents/ml plasma"}, {"measurement": "concentration of radioactivity in plasma", "setting": "male beagle, rectal, 1 h", "result": "0.0014 % administered radioactive dos"}, {"measurement": "radioactive drug equivalents in plasma", "setting": "male beagle, rectal, 1 h", "result": 1.33, "unit": "μg equivalents/ml plasma"}, {"measurement": "concentration of radioactivity in plasma", "setting": "male beagle, rectal, 2 h", "result": "0.0022 % administered radioactive dos"}, {"measurement": "radioactive drug equivalents in plasma", "setting": "male beagle, rectal, 2 h", "result": 2.08, "unit": "μg equivalents/ml plasma"}, {"measurement": "concentration of radioactivity in plasma", "setting": "male beagle, rectal, 4 h", "result": "0.00291 % administered radioactive dos"}, {"measurement": "radioactive drug equivalents in plasma", "setting": "male beagle, rectal, 4 h", "result": 2.72, "unit": "μg equivalents/ml plasma"}, {"measurement": "concentration of radioactivity in plasma", "setting": "male beagle, rectal, 8 h", "result": "0.00295 % administered radioactive dos"}, {"measurement": "radioactive drug equivalents in plasma", "setting": "male beagle, rectal, 8 h", "result": 2.75, "unit": "μg equivalents/ml plasma"}, {"measurement": "concentration of radioactivity in plasma", "setting": "male beagle, rectal, 24 h", "result": "0.00267 % administered radioactive dos"}, {"measurement": "radioactive drug equivalents in plasma", "setting": "male beagle, rectal, 24 h", "result": 2.49, "unit": "μg equivalents/ml plasma"}, {"measurement": "concentration of radioactivity in plasma", "setting": "male beagle, rectal, 48 h", "result": "0.00062 % administered radioactive dos"}, {"measurement": "radioactive drug equivalents in plasma", "setting": "male beagle, rectal, 48 h", "result": 0.58, "unit": "μg equivalents/ml plasma"}, {"measurement": "total radioactivity excreted, total", "setting": "male beagle, rectal, 48 h, dose 38.93 μCi", "result": 18.77, "unit": "μCi"}, {"measurement": "total radioactivity excreted, 0-24 h urine", "setting": "[3]", "result": 13.45, "unit": "μCi"}, {"measurement": "total radioactivity excreted, 24-48 h urine", "setting": "[3]", "result": 2.19, "unit": "μCi"}, {"measurement": "total radioactivity excreted, total faeces", "setting": "[3]", "result": 3.13, "unit": "μCi"}, {"measurement": "% total administered dose in evacuated suppository", "setting": "[2]", "result": 27.58, "unit": "%"}, {"measurement": "radioactive dose remaining in evacuated suppository", "setting": "[2]; dose 38.93 μCi", "result": 10.74, "unit": "μCi"}]}]}
